Key:
FGFR3^∂23 = target: T1, FGFR3^∂23 (Homo sapiens, UniProt P22607); experiment: isothermal titration calorimetry (ITC), FGFR3; type: binding
T1 construct: two ECD fragments, FGFR2^∂23 (consisting of domain D2 and 3) and FGFR3^∂23; made in house

[1] = test system: AKT phosphorylation in HUVEC cells; experiment: western blot analysis of AKT phosphorylation in HUVEC; type: cell-based, human; details: phospho-AKT Ser473
Experimental: HUVE Cells (Promocell, C-12200) are seeded in 35 mm collagen I coated disk (BD Biocoat, 354456) at 0.5.10^6 cells in 2 ml of EBM medium (Clonetics, CC-3121) containing 2% FBS (Clonetics, CC-4101), 10 μg/ml hEGF (Clonetics, CC-4017) from the EGM singlequots kit (Clonetics, CC-4133), 1250 ng/ml heparin (Sigma, H3149) and 375 ng/ml ECGS (BD Biosciences, 356006). At 90% confluency, cells are starved overernight in 1.8 ml of RPMI 1640 (Invitrogen, 32404-014), 0.5% FCS, 2 mM glutamine, 1 mM non-essential amino acids (Invitrogen, 11140-050), sodium pyruvate (Invitrogen, 11360-070). The day after, cells are stimulated 10 min by 200 μl of equilibrated starvation medium that contains 10×FGF-4 (30 ng/ml; R&D, 235-F4-025) with or without 10×SSR (3 μM). Next, cells are rinsed with cold PBS and cell lysed with 75 μl RIPA that contains 2.5 mM orthovanadate and protease inhibitors cocktail (Sigma, P8340). Cell lysates were centrifuged at 12,000 g for 10 min, and the supernatants were collected. Proteins were separated on 4-20% Novex Tris-Glycine polyacrylamide gels (Invitrogen) and subsequently transferred onto nitrocellulose membranes (Invitrogen, IB3010-01). […] Signal of each spot is obtained following chemiluminescent detection with SuperSignal® West Dura Extended Duration Substrate (Thermo Scientific, 34076) and spot density is quantified using a Biolmaging System Chemigenius2 (Syngene).

HUVEC [2] = experiment: cell migration with various growth factors (modified Boyden chamber); type: cell-based, human; details: SSR 1 μM
Experimental: Cell migration was assessed by a modified Boyden chamber assay, by using 24-well inserts containing 8 μm pore size transwell permeable supports with a polycarbonate membrane (Costar, Corning Inc.). Exponentially growing cells were starved in 0.2% FBS containing medium for 16 hours and resuspended at 5×10^5 cells/ml in the same low serum medium. 100 μl of the cell suspension were seeded in the upper chamber, while chemoattractants and/or SSR were placed in the lower chamber. Chemoattractants tested include: human PDGF-BB, IGF-I, PIGF, EGF, all at 100 ng/ml, in the presence or absence of SSR (1 μM). 10% FBS containing medium was used a positive control. After 6 hours incubation at 37° C., cells on the upper side of the membrane were scraped using a cotton swab, while migrated cells on the lower surface were fixed with 1% paraformaldehyde in PBS and nuclei stained with DAPI for quantification using a fluorescent microsope. Quanitifcation is performed by making 5 random images at a magnification of 10× and by counting the number of nuclei.

PANC02 cells = experiment: PANC02 migration; type: cell-based; details: 100 nM SSR; 100 ng/ml FGF7 with or without VEGF; FGFR2-IIIb
Experimental: Cell proliferation was analysed on exponentially growing cells that were starved for 16 hours in 100 μl RPMI 1640 (Invitrogen, 32404-014) with 0.2% FBS (Hyclone, SH30070.03), 2 mM glutamine, MEM non-essential amino-acid 1× (Gibco, 11140-035), MEM sodium pyruvate 1× (Gibco, 11360-039) and seeded at 4,000 cells/well in 96-well microplates. After exposure to mitogens and/or SSR for 72 hours, cell proliferation was assessed with the use of the CellTiter 96 AQueous One Solution Cell Proliferation Assay (Promega, Madison, Wis., USA) according to manufacturer's instructions. Cell migration was assessed by a modified Boyden chamber assay, by using 24-well inserts containing 8 μm pore size transwell permeable supports with a polycarbonate membrane (Costar, Corning Inc.). Exponentially growing cells were starved in 0.2% FBS containing medium for 16 hours and resuspended at 5×10^5 cells/ml in the same low serum medium. 100 μl of the cell suspension were seeded in the upper chamber, while chemoattractants and/or SSR were placed in the lower chamber. 10% FBS containing medium was used a positive control. After 6 hours incubation at 37° C., cells on the upper side of the membrane were scraped using a cotton swab, while migrated cells on the lower surface were fixed with 4% formaldehyde and nuclei stained with DAPI for quantification.

HUVEC [3] = experiment: HUVEC proliferation; type: cell-based, human; details: FGFR1β3c-driven; ATP content after 3 days
Experimental: Confluent HUVEC cells are harvested and 5 10^4 cells in 100 μl RPMI 1640 (Invitrogen, 32404-014) with 0.5% FCS (Hyclone, SH30070.03), 2 mM glutamine, MEM non-essential amino-acid 1× (Gibco, 11140-035), MEM sodium pyruvate 1× (Gibco, 11360-039) are seeded per well in 96-well collagen 1-coated plates (Beckton Dickinson, 354650) overnight. Then, medium is removed and replace by 50 μl of medium that contains 2×FGF2 (R&D, 234-FSE-025), FGF4 (R&D, 235-F4-025) or FGF-19 (in house produced) and 50 μl of 2×SSR (200 or 600 nM). Cells were incubated in CO2 chamber at 37° C. for 3 days and proliferation is evaluated by quantifying ATP content with 100 μl of “Cell Titer Glo Luminescent cell viability” kit (Promega, G7571).

FGFR1 (PAE-FGFR1) = target: T2, FGFR1 (PAE-FGFR1) (Homo sapiens, UniProt P11362); experiment: I125-FGF2 binding assay on PAE-FGFR1 cells; details: porcine aortic endothelial cells overexpressing FGFR1; SSR even at high μM concentrations
T2 construct: or the expression of the entire intact receptor in its native environment; expressed in transfected cells; host or cells: porcine aortic endothelial cells (PAE)
T2 sequence (P11362 22-822): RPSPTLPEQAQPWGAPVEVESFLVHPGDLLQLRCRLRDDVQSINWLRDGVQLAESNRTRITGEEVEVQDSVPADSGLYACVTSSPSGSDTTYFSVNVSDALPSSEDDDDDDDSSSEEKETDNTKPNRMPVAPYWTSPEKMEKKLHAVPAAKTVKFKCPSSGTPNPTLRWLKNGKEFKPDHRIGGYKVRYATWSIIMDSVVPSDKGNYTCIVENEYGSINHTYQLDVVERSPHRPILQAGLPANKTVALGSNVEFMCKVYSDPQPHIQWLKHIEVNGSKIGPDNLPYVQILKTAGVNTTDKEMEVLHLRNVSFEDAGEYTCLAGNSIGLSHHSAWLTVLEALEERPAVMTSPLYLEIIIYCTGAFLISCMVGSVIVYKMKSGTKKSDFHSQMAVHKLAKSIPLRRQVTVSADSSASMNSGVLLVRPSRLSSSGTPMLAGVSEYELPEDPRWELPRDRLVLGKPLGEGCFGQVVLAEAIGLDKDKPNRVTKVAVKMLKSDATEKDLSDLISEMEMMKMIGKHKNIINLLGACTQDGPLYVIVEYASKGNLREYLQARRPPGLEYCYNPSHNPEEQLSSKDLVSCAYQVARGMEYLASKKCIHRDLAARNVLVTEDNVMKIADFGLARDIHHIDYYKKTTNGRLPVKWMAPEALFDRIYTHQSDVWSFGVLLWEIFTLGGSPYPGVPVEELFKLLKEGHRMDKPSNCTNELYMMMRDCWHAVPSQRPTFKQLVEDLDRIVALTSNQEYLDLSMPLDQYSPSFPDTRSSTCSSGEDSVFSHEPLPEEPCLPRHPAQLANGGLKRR

T1 sequence (P22607 145-365): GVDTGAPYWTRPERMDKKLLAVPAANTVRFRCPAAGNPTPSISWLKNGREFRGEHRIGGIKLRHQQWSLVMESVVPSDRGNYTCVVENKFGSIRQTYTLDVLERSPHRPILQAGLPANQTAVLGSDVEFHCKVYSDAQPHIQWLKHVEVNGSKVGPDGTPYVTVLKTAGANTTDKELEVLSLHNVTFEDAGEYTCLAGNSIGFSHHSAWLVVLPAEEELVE

Q: What does the source list for `COc1c(C)c(C(=O)c2ccc(N)c(C(=O)[O-])c2)n2ccccc12.[Na+]` [SSR]?
A: binding to FGFR3 (FGFR3^∂23): bound; FGF-induced AKT phosphorylation [1]: inhibit; cellular response (migration) induced by EGF (HUVEC [2]; EGF 100 ng/ml): did not affect; cellular response (migration) induced by IGF (HUVEC [2]; IGF-I 100 ng/ml): did not affect; cellular response (migration) induced by PDGF-BB (HUVEC [2]; PDGF-BB 100 ng/ml): did not affect; cellular response (migration) induced by PIGF (HUVEC [2]; PIGF 100 ng/ml): did not affect; FGF7-induced PANC02 migration (PANC02 cells): blocked; FGF2-induced HUVEC proliferation (HUVEC [3]): able to inhibit FGF2-induced HUVEC proliferation; inhibition of I^125-FGF2 binding to its receptor (FGFR1 (PAE-FGFR1)): unable to inhibit I^125-FGF2 binding

From patent publication US9234025B2, “Extracellular allosteric inhibitor binding domain from a tyrosine kinase receptor” (SANOFI, priority 2009, dated 2016)
